Results: patent US11312680B2, “Method for treating a patient having a colon cancer” (King Abdulaziz University, priority 2019, dated 2022)

Experiments:
N87 stomach cancer cells = experiment: MTT cytotoxicity assay against N87 cells; type: cell-based, human
Experimental: Cytotoxicity of all the compounds against N87 cells was determined using MTT assay. Briefly, 25,000 cells suspended in 0.1 mL of cell culture media were added in each well of a 96-well plate. After allowing the cells to attach for 24 h, media was aspirated from all the wells, and different concentrations of anticancer compounds in cell culture media were added to the wells in triplicate. Six wells were incubated with drug free media, and used as control. 96 hours after the treatment, 25 μL of MTT solution (5 mg/mL in phosphate saline buffer, pH 7.4) was added to each well, and the plate was incubated for 4.5 hours at 37° C. in the incubator. After incubation, 100 μL of 10% SDS in 0.01 M hydrochloric acid was added to each well, and the plate was incubated overnight at 37° C. The next day absorbance was determined in each well at 590 nm using a plate reader. IC50 value of each compound was determined using GraphPad Prism.

MCF7 breast cancer cells = experiment: MTT viability assay against MCF7 cells; type: cell-based, human
Experimental: (§1) The KAC compounds were evaluated for antiproliferative effect against HCT-116 and MCF7 cell lines using the MTT viability assay and to calculate the relative IC50 values for each compound. Cells were seeded in triplicate in 96-well plates at a density of 10×10^3 cells/mL in a total volume of 100 μL per well and allowed to adhere overnight. Cells were treated with various concentrations of tested KAC compounds or 0.1% of DMSO (vehicle) for 27 h. Then the medium was discarded and 100 μL per well of MTT (5 mg/mL in PBS) containing medium was added. After incubation at 37° C. for 3 h, the MTT-containing medium was replaced by DMSO (100 μL per well) to dissolve the formazon crystal and incubated for 10 min. Absorbance of the solution was measured by microplate reader at […]. The IC50 values were calculated according to the dose-dependent curves using GraphPad prism, version 5.0. All the experiments were repeated in at least three independent experiments.

[1] = test system: HCT116 colon cancer cells; experiment: MTT viability assay against HCT-116 cells; type: cell-based, human
Experimental: as §1

HL-60 leukemia cells = experiment: CellTiter-Blue cell viability assay against HL-60 cells; type: cell-based; details: Homo sapiens, HL-60, 48 h, leukemia cells HL60, CellTiter-Blue
Experimental: HL-60 cells were purchased from CLS Cell Line Service GmbH (Eppelheim, Germany) and cultured in Roswell Park Memorial Institute-1640 medium (RPMI-1640; Thermo Fisher Scientific, Inc; Waltham, Mass., USA) supplemented with 10% fetal bovine serum (FBS; Thermo Fisher Scientific) and ciprofloxacin (10 μg/ml; Cipla Limited; Mumbai, India), at 37° C. with 5% CO2 in a humidified incubator.
The CellTiter®-Blue Cell Viability assay was acquired from Promega Corporation (Madison, Wis., USA). Cell viability assay was performed as follows. The cells (10^4/well) were incubated with KAC-12 at a concentration gradient ranging from 0.01 to 100 μM, in 96-well plates for 48 h at 37° C. Subsequently, 20 μL of CellTiter®-Blue Cell Viability reagent was added to each well and incubated for an additional 2 h for the development of fluorescence. The fluorescence emission was measured at 590 nm using the SpectraMax® i3x Multi-Mode microplate reader (Molecular Devices, LLC; San Jose, Calif., USA.) and plotted against drug concentrations to determine the mean inhibitory concentration of KAC-12 producing 50% decrease in cell viability (IC50).

HCT-116 cells = experiment: Cell cycle analysis of HCT-116 cells (propidium iodide flow cytometry); type: cell-based, human; details: for cell cycle effect: HCT-116, 24 and 48 hours; for apoptosis: HCT-116, positive controls at 1 μM; for apoptosis / cells in G2/M phase / apoptosis, population in the sub-G1 phase: 48 h; for percentage of cells in G2/M phase: 24 h, control 9.0%; for apoptosis, population in the sub-G1 phase: control 0.9%
Experimental: Flow cytometric analysis was used to determine DNA level in any given cell that has been stained with propidium iodide (PI). PI is a fluorescent DNA intercalating agent which binds stoichiometrically to nucleic acid. When bounded to DNA, its fluorescence intensity increases 20 fold (excitation 488 nm and emission 600 nm). As cells pass singly through a beam of light their cell cycle state is analyzed. The fluorescent intensity of DNA-bound PI correlates to the DNA content of the cell. This allows the cell population in G1 phase (diploid −2n), G2M phase (4n), or S phase (2n-4n) to be differentiated by plotting a histogram of the PI fluorescence versus cell counts (linear scale). G1 and G2M can be seen as distinct peaks, with the S phase shown as the population between these two peaks. Apoptotic cells are hypo-diploid (pre-G1) and have a low PI fluorescence due to DNA fragmentation [Riccardi, C.; Nicoletti, I., Analysis of apoptosis by propidium iodide staining and flow cytometry. Nature protocols 2006, 1 (3), 1458-1461].
To study cell cycle stage, adherent and detached cells were collected by trypsinization and centrifuged at 800×g for 15 min. Cells were washed twice with ice-cold PBS and fixed with slow addition of ice-cold 70% ethanol overnight at −20° C. Fixed cells were centrifuged at 800×g for 15 min and the pellet was re-suspended in 400 μL PBS and transferred to LP5 FACS tubes then stained with 50 μg/mL of PI, containing 50 μg/mL of DNase-free RNase A (to degraded any double strand RNA present), at 37° C. for 30 min. The DNA content of cells (10,000 cells/experimental group) was analyzed by flow cytometer at 488 nm using a FACSCalibur flow cytometer (BD Biosciences, San Jose, Calif.).
In general, G2/M cell cycle arrest is strongly associated with inhibition of tubulin polymerization. The effect of KX-01 analogue, KAC-3, was investigated with colon cancer HCT-116 cells by flow cytometry at two concentrations (5 μM and 10 μM) for 24 and 48 hours. […] The percentage of cells in G2/M phase after 24 h was 13.3% and 41.7% at concentrations of 5 μM and 10 μM, respectively compared to the control (9.0%) (see FIG. 9). […] The cell cycle analysis results for KAC-3 are typical for tubulin targeting agents, which characteristically cause G2/M blockade followed by apoptosis [Perez, E. A., Microtubule inhibitors: Differentiating tubulin-inhibiting agents based on mechanisms of action, clinical activity, and resistance. Molecular cancer therapeutics 2009, 8 (8), 2086-2095]. […] Cancer research and treatment: official journal of Korean Cancer Association 2017, 49 (3), 643-655; and Anbalagan, M.; Carrier, L.; Glodowski, S.; Hangauer, D.; Shan, B.; Rowan, B. G., KX-01, a novel Src kinase inhibitor directed toward the peptide substrate site, synergizes with tamoxifen in estrogen receptor a positive breast cancer. Breast cancer research and treatment 2012, 132 (2), 391-409]. […] Frontiers in pharmacology 2017, 8, 244].

[2] = test system: MDA-MB-231 and BT-549 and MDA-MB-468 cells; details: MDA-MB-231, BT-549, MDA-MB-468 cells; literature; cited from earlier work

Compound: CCN(CC)C(=O)c1ccccc1C(=O)Nc1ccc(CC(=O)NCc2ccccc2)cc1 [KAC-04, N^1-(4-(2-(benzylamino)-2-oxoethyl)phenyl)-N^2,N^2-diethylphthalamide]
- IC50 (N87 stomach cancer cells; Homo sapiens, 96 h): > 50 µM
- IC50 (MCF7 breast cancer cells; Homo sapiens, MCF7, 27 h): > 50 µM

Compound: Nc1ccc(CC(=O)NCc2ccccc2)cc1 [KAC-14, 2-(4-aminophenyl)-N-benzylacetamide]
- IC50 (N87 stomach cancer cells; Homo sapiens, 96 h): > 50 µM
- IC50 HCT116 ([1]; 27 h): did not affect any of the tested cell lines
- IC50 ([1]; Homo sapiens, HCT-116, 27 h): > 50 µM
- IC50 (HL-60 leukemia cells): > 50 µM

Compound: Cc1ccc(NC(=O)c2ccc(CN3CCN(C)CC3)cc2)cc1Nc1nccc(-c2cccnc2)n1 [imatinib, reference compound]
- cell cycle effect (HCT-116 cells): no significant difference in the other cell cycle phases
- apoptosis (HCT-116 cells): 6.4%

Compound: CC(=O)Nc1ccc(CC(=O)NCc2ccccc2)cc1 [KAC-01, 2-(4-acetamidophenyl)-N-benzylacetamide]
- IC50 (N87 stomach cancer cells; Homo sapiens, 96 h): > 50 µM
- IC50 ([1]; 27 h): 18.8 µM
- IC50 ([1]; Homo sapiens, HCT-116, 27 h): 18.8 µM
- IC50 (MCF7 breast cancer cells; Homo sapiens, MCF7, 27 h): 29.3 µM

Compound: O=C(Cc1ccc(NC(=O)c2ccccc2C(=O)N2CCCCC2)cc1)NCc1ccccc1 [KAC-02, N-(4-(2-(benzylamino)-2-oxoethyl)phenyl)-2-(piperidine-1-carbonyl)benzamide]
- IC50 (MCF7 breast cancer cells; Homo sapiens, MCF7, 27 h): 9.48 µM

Compound: CC(=O)O[C@H]1C(=O)[C@@]2(C)[C@H]([C@H](OC(=O)c3ccccc3)[C@]3(O)C[C@H](OC(=O)[C@H](O)[C@@H](NC(=O)c4ccccc4)c4ccccc4)C(C)=C1C3(C)C)[C@]1(OC(C)=O)CO[C@@H]1C[C@@H]2O [Paclitaxel, reference compound]
- cell cycle effect (HCT-116 cells): no significant difference in the other cell cycle phases
- apoptosis (HCT-116 cells): 7.7%

Compound: O=C(Cc1ccc(NC(=O)c2ccccc2-c2ccccc2C(=O)N2CCOCC2)cc1)NCc1ccccc1 [KAC-06, N-(4-(2-(benzylamino)-2-oxoethyl)phenyl)-2′-(morpholine-4-carbonyl)-[1,1′-biphenyl]-2-carboxamide]
- IC50 (N87 stomach cancer cells; Homo sapiens, 96 h): > 50 µM
- IC50 ([1]; Homo sapiens, HCT-116, 27 h): 30.6 µM
- IC50 (MCF7 breast cancer cells; Homo sapiens, MCF7, 27 h): 34.9 µM

Compound: O=C(Cc1ccc(-c2ccc(OCCN3CCOCC3)cc2)cn1)NCc1ccccc1 [KX-01]
- cell cycle effect [2]: induced significant G2M phase arrest

Compound: O=C(Cc1ccc(NC(=O)c2ccccc2)cc1)NCc1ccccc1 [KAC-08, N-(4-(2-(benzylamino)-2-oxoethyl)phenyl)benzamide]
- IC50 N87 (N87 stomach cancer cells; 96 hours): much weaker
- IC50 (N87 stomach cancer cells; Homo sapiens, 96 h): > 50 µM
- IC50 ([1]; 27 h): 19.7 µM
- IC50 ([1]; Homo sapiens, HCT-116, 27 h): 19.7 µM
- IC50 (MCF7 breast cancer cells; 27 h): 2.63 µM
- IC50 (MCF7 breast cancer cells; Homo sapiens, MCF7, 27 h): 2.6 µM

Compound: O=C(Cc1ccc(NC(=O)c2cccc(Cl)c2)cc1)NCc1ccco1 [KAC-18, 3-Chloro-N-(4-(2-((furan-2-ylmethyl)amino)-2-oxoethyl)phenyl)benzamide]
- IC50 ([1]; Homo sapiens, HCT-116, 27 h): 23.9 µM

Compound: O=C(Cc1ccc(NC(=O)c2cccc(Cl)c2)cc1)NCc1ccc(F)cc1 [KAC-16, 3-Chloro-N-(4-(2-((4-fluorobenzyl)amino)-2-oxoethyl)phenyl)benzamide]
- IC50 ([1]; Homo sapiens, HCT-116, 27 h): > 50 µM

Compound: CCC(=O)Nc1ccc(CC(=O)NCc2ccccc2)cc1 [KAC-09, N-(4-(2-(benzylamino)-2-oxoethyl)phenyl)propionamide]
- IC50 (N87 stomach cancer cells; 96 hours): 7.24 µM
- IC50 (N87 stomach cancer cells; Homo sapiens, 96 h): 7.2 µM
- IC50 ([1]; Homo sapiens, HCT-116, 27 h): > 50 µM
- IC50 (MCF7 breast cancer cells; 27 h): 37 µM
- IC50 (MCF7 breast cancer cells; Homo sapiens, MCF7, 27 h): 37 µM

Compound: O=C(Cc1ccc(NC(=O)c2ccccc2-c2ccccc2C(=O)N2CCCCC2)cc1)NCc1ccccc1 [KAC-05, N-(4-(2-(benzylamino)-2-oxoethyl)phenyl)-2′-(piperidine-1-carbonyl)-[1,1′-biphenyl]-2-carboxamide]
- IC50 ([1]; Homo sapiens, HCT-116, 27 h): > 50 µM
- IC50 (MCF7 breast cancer cells; Homo sapiens, MCF7, 27 h): 44.2 µM

Compound: O=C(Cc1ccc(NC(=O)c2cccc(Cl)c2)cc1)NCCc1ccccc1 [KAC-17, 3-Chloro-N-(4-(2-oxo-2-(phenethylamino)ethyl)phenyl)benzamide]
- IC50 ([1]; Homo sapiens, HCT-116, 27 h): 25.9 µM

Compound: CCN(CC)C(=O)c1ccccc1-c1ccccc1C(=O)Nc1ccc(CC(=O)NCc2ccccc2)cc1 [KAC-07, N^2-(4-(2-(benzylamino)-2-oxoethyl)phenyl)-N^2′,N^2′-diethyl-[1,1′-biphenyl]-2,2′-dicarboxamide]
- IC50 (N87 stomach cancer cells; Homo sapiens, 96 h): > 50 µM
- IC50 (MCF7 breast cancer cells; Homo sapiens, MCF7, 27 h): > 50 µM

Compound: Cc1ccc(S(=O)(=O)Nc2ccc(CC(=O)NCc3ccccc3)cc2)cc1 [KAC-10, N-benzyl-2-(4-((4-methylphenyl)sulfonamido)phenyl)acetamide]
- IC50 ([1]; Homo sapiens, HCT-116, 27 h): 22.7 µM

Compound: O=C(Cc1ccc(NC(=O)c2ccccc2C(=O)N2CCOCC2)cc1)NCc1ccccc1 [KAC-03, N-(4-(2-(benzylamino)-2-oxoethyl)phenyl)-2-(morpholine-4-carbonyl)benzamide]
- IC50 (N87 stomach cancer cells; Homo sapiens, 96 h): 18.2 µM
- IC50 ([1]; 27 h): 4.76 µM
- IC50 ([1]; Homo sapiens, HCT-116, 27 h): 4.8 µM
- percentage of cells in G2/M phase (HCT-116 cells; HCT-116, 5 μM): 13.3%
- cells in G2/M phase (HCT-116 cells; HCT-116, 5 μM): 30.7%
- apoptosis, population in the sub-G1 phase (HCT-116 cells; HCT-116, 5 μM): 8.7%
- percentage of cells in G2/M phase (HCT-116 cells; HCT-116, 10 μM): 41.7%
- cells in G2/M phase (HCT-116 cells; HCT-116, 10 μM): 32.8%
- apoptosis, population in the sub-G1 phase (HCT-116 cells; HCT-116, 10 μM): 11.6%
- cell cycle effect (HCT-116 cells): significant G2/M arrest in a time- and concentration-dependent manner
- IC50 (MCF7 breast cancer cells; Homo sapiens, MCF7, 27 h): 3.5 µM

Compound: COc1ccc(CNC(=O)Cc2ccc(NC(=O)c3cccc(Cl)c3)cc2)cc1 [KAC-15, 3-Chloro-N-(4-(2-((4-methoxybenzyl)amino)-2-oxoethyl)phenyl)benzamide]
- IC50 ([1]; Homo sapiens, HCT-116, 27 h): > 50 µM
